Assay results: patent US20260294857A1, “TREATMENT OF HYPOPARATHYROIDISM USING TRIPHENYL CALCILYTIC COMPOUNDS” (CALCILYTIX THERAPEUTICS, INC., priority 2023, published 2026)

Legend:
[1] = biological target: T1, calcium-sensing receptor (CaSR) (Homo sapiens, UniProt P41180); assay: Ongoing open-label phase 2 proof-of-principle study in women with post-surgical hypoparathyroidism (PSH), NCT05735015; assay type: in vivo
T1 construct: oral CLTX-305 (encaleret) in post-surgical hypoparathyroidism subjects; clinical safety and blood calcium endpoints
T1 sequence (P41180 20-1078): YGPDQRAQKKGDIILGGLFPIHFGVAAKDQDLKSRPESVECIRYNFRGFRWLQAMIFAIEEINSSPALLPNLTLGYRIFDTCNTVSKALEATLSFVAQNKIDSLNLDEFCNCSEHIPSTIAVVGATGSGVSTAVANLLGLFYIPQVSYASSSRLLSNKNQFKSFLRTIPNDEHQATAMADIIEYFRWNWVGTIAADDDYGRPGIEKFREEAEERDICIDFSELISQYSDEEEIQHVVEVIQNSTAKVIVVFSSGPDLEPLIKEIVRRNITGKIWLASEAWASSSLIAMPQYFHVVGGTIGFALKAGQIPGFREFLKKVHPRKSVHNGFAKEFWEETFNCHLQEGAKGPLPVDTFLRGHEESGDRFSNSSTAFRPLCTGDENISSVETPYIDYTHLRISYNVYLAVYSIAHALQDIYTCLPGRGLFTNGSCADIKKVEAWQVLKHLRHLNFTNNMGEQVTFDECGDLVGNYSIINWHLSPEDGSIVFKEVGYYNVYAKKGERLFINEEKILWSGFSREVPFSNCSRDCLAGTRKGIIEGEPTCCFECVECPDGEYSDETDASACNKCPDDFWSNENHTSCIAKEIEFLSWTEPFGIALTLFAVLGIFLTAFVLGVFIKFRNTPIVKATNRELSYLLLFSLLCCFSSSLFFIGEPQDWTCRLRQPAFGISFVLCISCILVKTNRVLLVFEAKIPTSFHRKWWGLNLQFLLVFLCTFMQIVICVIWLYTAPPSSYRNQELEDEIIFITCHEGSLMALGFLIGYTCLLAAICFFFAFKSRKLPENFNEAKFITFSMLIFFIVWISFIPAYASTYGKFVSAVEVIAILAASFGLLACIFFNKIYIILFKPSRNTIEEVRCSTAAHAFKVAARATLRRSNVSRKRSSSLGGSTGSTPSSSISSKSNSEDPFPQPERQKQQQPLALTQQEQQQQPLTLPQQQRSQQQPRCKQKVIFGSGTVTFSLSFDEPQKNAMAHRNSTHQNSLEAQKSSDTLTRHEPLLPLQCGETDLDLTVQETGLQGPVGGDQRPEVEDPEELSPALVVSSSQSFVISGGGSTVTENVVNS
Source text: Title: Phase 2 study of the PTH-independent Effects of formula (I) (e.g., CLTX-305) on Mineral Homeostasis in subjects with post-surgical hypoparathyroidism (PSH).
Study Description: This will be a single-site, proof-of-principle, open-label study to explore the PTH-independent effects of formula (I) (e.g., CLTX-305) on calcium homeostasis in subjects with low or undetectable PTH levels as a result of neck surgery (PSH).
Primary Endpoint: Percent change in Fractional Excretion of Calcium (FECa) from baseline (Day −1) to the final day of treatment (Day 6 or the last measurement while on formula (I) (e.g., CLTX-305)). FECa calculated using fasting blood levels and spot urine collection.
Secondary Endpoints: Proportion of subjects who achieve a concomitant normal fasting blood calcium (albumin-corrected calcium >8.5 mg/dL) and a normal 24-hour urinary calcium level (<250 mg/24 hours for women, <300 mg/24 hours for men) on formula (I) (e.g., CLTX-305) at any point between day 1 and day 5.
• Change in blood iPTH comparing average baseline iPTH to average peak iPTH on formula (I) (e.g., CLTX-305). The average baseline iPTH will include all baseline iPTH levels from the screening visit, Day −1, and pre-dose on Day 1. The average peak iPTH will average the peak iPTH levels on every day the subject is on formula (I) (e.g., CLTX-305) (days 1 to 5). An increase in iPTH will be considered clinically significant if there is an increase both by 50% AND by more than […]. • Change in 1,25-(OH)2 Vitamin D on formula (I) (e.g., CLTX-305) comparing the maximal level prior to receiving calcitriol (On Days 3-5) to baseline (Average of Day 1 Pre-dose levels). Increase will be considered significant if there is an increase of more than 50%. Subjects who receive calcitriol prior to Day 3 will be excluded. • Percent change in Fractional Excretion of Calcium (FECa) from baseline […] to the final day of treatment (Day 6 or the last measurement while n encaleret). FECa calculated using fasting blood levels and spot urine collection. • Pharmacodynamic endpoints measured over 5 days of formula (I) (e.g., CLTX-305) therapy: • Blood iPTH—Absolute levels and change from baseline • Albumin-corrected blood calcium—Absolute levels and change from baseline • Ionized Calcium—Absolute levels and change from baseline • Urinary calcium clearance (fractional excretion and 24-hour total excretion)—Absolute levels and change from baseline • Serum levels of 1,25-(OH)2 Vitamin D—Absolute levels and change from baseline • Blood intact FGF23 (iFGF23) and C-terminal FGF23 (cFGF23)—Absolute levels and change from baseline • Urine cAMP and citrate—Absolute levels and change from baseline • Blood bone resorption marker, collagen cross-linked C-telopeptide (CTx)—Absolute levels and change from baseline • Blood bone formation marker, blood procollagen type 1 N-propeptide (P1NP)—Absolute levels and change from baseline • Change in components of urine including: supersaturation, sodium, potassium, calcium, magnesium, chloride, phosphorus, sulfate, citrate excretion, oxalate, pH, uric acid, creatinine, osmolality, ammonium, urea nitrogen, protein catabolic rate • PK parameters such as maximum plasma concentration Cmax), time to maximum plasma concentration (tmax), apparent terminal half-life (t½) • Subgroup analysis of other primary, secondary, and tertiary endpoints
Intervention: CLTX-305 will be provided as an oral film-coated tablet. Each tablet contains 54 mg of formula (I) on a salt-free and anhydrous basis (i.e., 60 mg of CLTX-305). Subjects will receive 3 tablets twice a day (BID).
The investigational medicinal product (IMP), formula (I) (e.g., CLTX-305), will be provided as film-coated tablets containing the active ingredient formula (I) on a salt-free and anhydrous basis provided in 54 mg dosage strength. Subjects will receive active ingredient formula (I) 162 mg (i.e., 180 mg CLTX-305) (3 tablets) BID per protocol with water. […]

osteoporosis = conditions: late phase trials; postmenopausal women with osteoporosis; cited from earlier work
[2] = system: calcium-sensing receptor (CaSR); conditions: individuals with functioning parathyroid tissue; calcilytics (e.g., CLTX-305); cited from earlier work
[3] = thiazide discontinuation before treatment; cited from earlier work

## Cc1cc(-c2ccccc2[C@@H](C)OC[C@H](O)CNC(C)(C)Cc2ccc(Cl)c(F)c2)ccc1C(=O)O [CLTX-305]
[1]; after the 30 minutes increase, baseline 7.4 pg/mL, n=4
  PTH after transient increase: returned to near baseline levels
[1]; first four participants with PSH
  FECa, effect in words: reduced FECa
[1]; four women with PSH
  Serious adverse events: no serious adverse events reported
  Treatment-related adverse events (AEs): mild hypercalcemia causing headache in 1 participant
[1]; four women with PSH, 162 mg every 12 hours, up to 10 doses
  Bone turnover markers: normal and did not change
[1]; mean (range), 30 minutes after the first dose, baseline 7.4 pg/mL (range 4.6-10.1; nl 15-65), n=4
  PTH, transient increase: 13.0 (4.5-18.1) pg/mL
[1]; mean (range), fasting, 12 hours after last dose vs fasting baseline pre-dose, four women with PSH, CLTX-305 162 mg every 12 hours for up to 10 doses
  Decrease in fractional excretion of calcium (FECa): 52% (34-78)
[1]; mean (range), fasting, 12 hours after last dose, baseline 8.4 mg/dL (range 8.1-8.6; nl 8.4-10.2), 162 mg every 12 hours, up to 10 doses, n=4
  Albumin-corrected blood calcium: 9.3 (8.6-10.7) mg/dL
[1]; mean (range), on treatment, baseline 348 mg/day (range 204-501; nl<250), 162 mg every 12 hours, up to 10 doses, n=4
  Urinary calcium excretion: 169 (76-350) mg/day
[1]; of four women with PSH, all received calcium supplementation initially
  Participants who discontinued calcium supplementation to maintain eucalcemia: 1 participant
[1]; of four women with PSH, calcitriol 0.25 mcg daily
  Participants who required re-initiation of low-dose calcitriol to maintain eucalcemia: 3
[1]; of four women with PSH, nl<250 mg/day
  Normalization of urinary calcium excretion: 3 participants
[1]; one participant with mild hypercalcemia
  24-hour urine calcium despite elevated blood calcium: < 200 mg/day
[1]; one participant with mild hypercalcemia, calcium and calcitriol supplementation discontinued
  Time for which blood calcium continued to be mildly elevated after the last dose: 60 h
[1]; one participant without normalization, 162 mg every 12 hours, up to 10 doses
  Decrease in urinary calcium excretion in the fourth participant: 30%
osteoporosis
  Bone mineral density (BMD) efficacy: failed to demonstrate efficacy on endpoints of bone mineral density (BMD)
[2]
  Blood calcium levels, in words: increased blood calcium levels
  PTH secretion: increase PTH secretion
  Urinary calcium excretion, in words: decrease urinary calcium excretion

## NS(=O)(=O)c1cc2c(cc1Cl)N=CNS2(=O)=O [chlorothiazide]
[3]
  5 half-lives: 10 h

## NS(=O)(=O)c1cc(C2(O)NC(=O)c3ccccc32)ccc1Cl (stereo not shown) [chlorthalidone]
[3]
  5 half-lives: 300 h

## NS(=O)(=O)c1cc2c(cc1Cl)NCNS2(=O)=O [hydrochlorothiazide]
[3]
  5 half-lives: 75 h
